The source of these data is patent US6262036A, “Method for inhibiting RNA translation using chimeric oligonucleoside compounds” (priority 2000, dated 2001).

For data set [1], the system named is complementary synthetic RNA target. The data set is described as follows: Hybridization of chirally enriched and non-chiral oligomers to RNA targets (Example 32). It counts as binding. As to conditions: 1:1 with RNA, midpoint of sigmoidal transition at 260 nm. The method, then:
Chirally enriched all-pyrimidine (C*T)7 A and all-purine (A*G)7 T MP-oligomers were prepared using either Rp - or Sp -dimeric units. Control oligomers were also prepared using the individual monomeric units. The asterisks indicate the positions of defined chirality.
Each oligomer was annealed to a complementary synthetic RNA target and then monitored by absorbance at 260 nm as a function of temperature. Sigmoidal transitions were observed corresponding to thermal denaturation of the hybridization complexes. The Tm values were determined at the midpoint of each sigmoidal transition. […] Thus, we anticipated that the data for each chirally enriched series would be applicable to double-stranded and triple-stranded MP/RNA helices, respectively.

Data set [2] relates to complementary RNA targets. Description: Tm of Rp-enriched versus racemic methylphosphonate oligomers with RNA (Example 33). It is filed as binding. The note with it: 2.4 μM total strand concentration, pH 7.2, 100 mM sodium chloride.
Data set [3] has as its system complementary synthetic RNA targets. Description: Binding stability of backbone modified (CT)7A oligomers to RNA (Example 34).

[mp] = methylphosphonate linkage

Take “2288-1: 5'-CT-CT-CT-CT-CT-CT-CT-A-3', racemic all-MP (CTCTCTCTCTCTCTA; all [mp], sugars by position and methylation of C not given here) [Oligomer 2288-1]”: the “Tm (1:1, RNA)” value in data set [1] worked out at 35.1 °C. Moreover, in data set [2], the Tm was found to be 34.4 °C. The substance further had a TM in data set [3] (2.4 μM total strand concentration, pH 7.2, 100 mM sodium chloride) of 34.0 °C. For the same substance, the “K (37° C.) (binding constant KA)” value in data set [3] (37° C., two-state model fit of thermal dissociation data) was 8.3 × 10^5.
